This note sets out measurements from PubChem BioAssay (NCI).

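Protocol summary: plate cells (96-well), add compound at 5 concentrations, incubate 48 h, interpolate endpoints linearly. GI50: concentration for 50% inhibition of growth. The concentration for full growth arrest is given as TGI.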 Bounds are passed on as bounds.

Some test systems named below: MDA-MB-435; UACC-62 melanoma; UACC-257 melanoma; SF-539 CNS; SR leukemia; OVCAR-5 ovarian; ACHN renal; SNB-19 CNS; NCI-H522 lung; HCT-116 colon.
Holding throughout (assay): NCI-60 cell line screen, 48 h

Regarding `COC(CCP(=O)(c1ccccc1)c1ccccc1)(C(=O)c1ccccc1)c1ccccc1` (stereo not given), the GI50 with MDA-MB-435 was 3.64 µM; with UACC-62 melanoma, 2.39 µM; in the assay with UACC-257 melanoma it was 3.11 µM; in the assay on SF-539 CNS, 10.2 µM; with SR leukemia it was 0.967 µM; in the assay on OVCAR-5 ovarian it was 10.1 µM. For the same molecule, the GI50 is 4.98 µM with ACHN renal, 5.75 µM in the assay with SNB-19 CNS, 4.71 µM in the assay on NCI-H522 lung and 4.48 µM with HCT-116 colon. Besides, the TGI in the assay on MDA-MB-435 was 15 µM; with UACC-62 melanoma, 15.1 µM; in the assay with UACC-257 melanoma, 11.8 µM; with SF-539 CNS it was 21.9 µM; in the assay with SR leukemia it was greater than 100 µM; with OVCAR-5 ovarian, 23.7 µM. For the same molecule, the TGI with ACHN renal was found to be 17 µM; with SNB-19 CNS it was 19.1 µM; with NCI-H522 lung, 26 µM; with HCT-116 colon, 16.5 µM.

With `C(=C1c2ccccc2-c2ccccc21)c1ccccn1`, the GI50 is 1.72 µM in the assay with MDA-MB-435; 5.8 µM with UACC-62 melanoma; 20.1 µM in the assay with UACC-257 melanoma; 11.7 µM with SF-539 CNS; 3.76 µM in the assay with SR leukemia; 21.8 µM in the assay with OVCAR-5 ovarian. Besides, the GI50 in the assay with ACHN renal is 26.6 µM; with SNB-19 CNS, 14 µM; in the assay on NCI-H522 lung, 11.1 µM; in the assay on HCT-116 colon, 5.07 µM. Further, the TGI in the assay with MDA-MB-435 is 3.69 µM; with UACC-62 melanoma, greater than 100 µM; in the assay on UACC-257 melanoma, greater than 100 µM; in the assay with SF-539 CNS it was 50.2 µM; in the assay with SR leukemia, 38.3 µM; in the assay on OVCAR-5 ovarian, greater than 100 µM. The TGI in the assay with ACHN renal is greater than 100 µM; in the assay on SNB-19 CNS, greater than 100 µM; with NCI-H522 lung, 51.1 µM; in the assay with HCT-116 colon it was 24.6 µM.

Regarding `Cn1c(=O)cc2c3c(c(NCCCO)ccc31)C(=O)c1ccccc1-2`, the GI50 is 3.47 µM in the assay with MDA-MB-435; 2.45 µM in the assay on UACC-62 melanoma; 5.37 µM with UACC-257 melanoma; 8.8 µM with SF-539 CNS; 0.694 µM with SR leukemia; 32.8 µM with OVCAR-5 ovarian. Moreover, the GI50 with ACHN renal was 1.21 µM; with SNB-19 CNS, 4.46 µM; in the assay with NCI-H522 lung it was 2.5 µM; with HCT-116 colon, 0.491 µM. For the same molecule, the TGI in the assay with MDA-MB-435 was greater than 100 µM; with UACC-62 melanoma it was greater than 100 µM; with UACC-257 melanoma, greater than 100 µM; in the assay with SF-539 CNS, greater than 100 µM; in the assay with SR leukemia, 13.4 µM; in the assay with OVCAR-5 ovarian, greater than 100 µM. The TGI in the assay on ACHN renal, with SNB-19 CNS, with NCI-H522 lung and with HCT-116 colon was greater than 100 µM each time.

Regarding `CN1C(=O)CNC(=O)[C@H](NC(=O)c2nc3ccccc3cc2O)CSSC[C@H]1C(=O)NCCc1nc2ccccc2cc1O`, the GI50 is 2.5 µM in the assay with MDA-MB-435; 7.64 µM in the assay with UACC-62 melanoma; 17.1 µM with UACC-257 melanoma; 15.2 µM with SF-539 CNS; 0.387 µM with SR leukemia; 24.9 µM in the assay with OVCAR-5 ovarian. In addition, the GI50 in the assay on ACHN renal was 15.3 µM; in the assay on SNB-19 CNS, 33.5 µM; in the assay on NCI-H522 lung it was 2.38 µM; with HCT-116 colon, 2.05 µM. Moreover, the TGI amounted to 35.8 µM in the assay on MDA-MB-435; 38.6 µM in the assay on UACC-62 melanoma; 72.9 µM in the assay on UACC-257 melanoma; 39.1 µM in the assay on SF-539 CNS; 1.96 µM in the assay with SR leukemia; 62.1 µM with OVCAR-5 ovarian. For the same molecule, the TGI in the assay on ACHN renal was 38.7 µM; in the assay with SNB-19 CNS, greater than 100 µM; in the assay with NCI-H522 lung, 7.46 µM; in the assay with HCT-116 colon, 57.6 µM.
